Broadly, the IC50 is the concentration needed to halve the response being measured.

Entries after “also recorded” stand apart in the source; their conditions may differ.

Results on one molecule are retold here after patent US20150253330A1, “PRE-SELECTION OF SUBJECTS FOR THERAPEUTIC TREATMENT WITH AN HSP90 INHIBITOR BASED ON HYPOXIC STATUS” (Synta Pharmaceuticals Corp., priority 2012, published 2015).

The subject of data set [1] is GCIY. The data set can be described thus: 72 hr viability by Syto60, gastric cell line. Type of data set: cell-based. The following applies: Homo sapiens, Syto60 (lower), read-out: ganetespib IC50.
The test system of data set [2] is HGC-27. Put plainly: 72 hr viability by Syto60, gastric cell line. Type of data set: cell-based. The following applies: Homo sapiens, Syto60 (lower), read-out: ganetespib IC50.
Data set [3] deals with ECC12. Put plainly: 72 hr viability by Syto60, gastric cell line. Type of data set: cell-based. The following applies: Homo sapiens, Syto60 (lower), read-out: ganetespib IC50.
The subject of data set [4] is SNU-5. Put plainly: 72 hr viability by Syto60, gastric cell line. It is filed as cell-based. The following applies: Homo sapiens, Syto60 (lower), read-out: ganetespib IC50.
Data set [5] relates to 15 KRAS mutant NSCLC cell lines. Put plainly: Viability of KRAS mutant NSCLC cell line panel, 72 h, CellTiter-Glo. The settings on record: across 15 KRAS mutant NSCLC cell lines in vitro. Type of data set: cell-based. On the procedure: Breast cancer is a heterogeneous disease historically broken down into 4 subtypes. Various compounds were tested for their effects in cell viability assays using various breast cancer cell lines. Cellular viability was assessed using the CellTiter-Glo® Luminescent Cell Viability Assay (Promega, Madison, Wis., USA) according to the manufacturer's protocol. KRAS mutant NSCLC cell lines were seeded into 96-well plates based on optimal growth rates determined empirically for each line. Twenty-four hours after plating, cells were dosed with graded concentrations of ganetespib for 72 h. CellTiter-Glo® was added (50% v/v) to the cells, and the plates incubated for 10 min prior to luminescent detection in a SpectraMax® Plus 384 microplate reader (Molecular Devices, Sunnyvale, Calif., USA). Data were normalized to percent of control and IC50 values used to determine the sensitivity of each line. For the comparative analysis study with MEK and PI3K/mTOR inhibitors, A549, H2009, Calu-1, and H358 cells were treated with graded concentrations of ganetespib, AZD6244, or BEZ235 for 72 h and cell viability measured as above.

Data set [6] concerns KRAS substrates, including BRAF and CRAF. Put plainly: KRAS substrates at the molecular level in KRAS mutant NSCLC cells. It is filed as cell-based.
Data set [7] relates to solid tumors. The data set can be described thus: Phase 1 trial of ganetespib in combination with docetaxel in solid tumors. It is filed as in vivo, human. The method, then: A trial to evaluate three dose-level combinations of docetaxel and ganetespib, administered on a three-week cycle, with the primary objective of determining an optimal dose for future clinical trials was performed. Docetaxel was administered as a one hour IV infusion on day 1 and ganetespib was administered as a one hour IV infusion on days 1 and 15. The dose level combinations evaluated were 150 mg/m^2 and 60 mg/m^2; 150 mg/m^2 and 75 mg/m^2; and 200 mg/m^2 and 75 mg/m^2 for ganetespib and docetaxel respectively. The standard of care dose level for docetaxel was 75 mg/m^2. A total of 19 patients received at least one dose of study treatment at the cut-off time. The median number of cycles of treatment was 4, with a range of 1 to 11 cycles of treatment. No prophylactic treatment for neutropenia was used. The combination of ganetespib at 150 mg/m^2 and docetaxel at 75 mg/m^2 was selected as the recommended dose.

The subject of data set [8] is HIF-1α and VEGF. Put plainly: Western blot of HIF-1α and VEGF in pancreatic cancer cell lines. Type of data set: cell-based. The following applies: 50 nM, 24 h. The method, then: (§1) It's postulated that functional inhibition of Hsp90 by ganetespib can inhibit angiogenesis and growth in vitro and in vivo models of pancreatic cancer. PANC-1 and HPAC cell lines were treated with vehicle or G (50 nM) for 24 h and lysates were analyzed by Western blot. Egg CAM and matrigel plug assays were performed to quantify the effects of ganetespib on angiogenesis. Efficacy of ganetespib (100 mg/kg) was assessed in mice bearing HPAC and ASPC-1 xenograft.
Primary antibodies specific to Hsp90, HIF-1α, VEGF, Actin and HRP conjugated secondary antibodies (Santa Cruz Biotechnology, California and Cell Signaling Technology, USA) were used for Western blot. Ganetespib was provided by Synta Pharmaceuticals, Lexington, Mass. and Matrigel was purchased from BD Biosciences.
Cells were harvested at the end of treatment and lysed in the RIPA protein extraction buffer (Sigma-Aldrich, Saint Louis, Mo., USA) containing the protease inhibitor cocktail. Equal amounts of protein fractions of lysates were resolved over SDS-PAGE and transferred on to PVDF membrane. Membranes were incubated with primary antibodies followed by HRP-conjugated secondary antibodies. Bound antibodies were visualized using enhanced chemiluminescence. To confirm equal loading, membranes were verified and re-probed with an antibody specific for the housekeeping gene, anti-β-actin.

The test system of data set [9] is VEGF secretion. Put plainly: VEGF ELISA of conditioned medium of pancreatic cancer cell lines. It is filed as cell-based. On the procedure:
VEGF concentration in the conditioned medium (from control and treated cells) was determined using a commercial Human VEGF Quantikine ELISA kit (R&D systems, Minneapolis, Minn.) as per manufacturer's instructions.

In data set [10] the test system is HPAC and ASPC-1 xenograft. The data set can be described thus: In vivo tumor growth delay and angiogenic assay, pancreatic xenografts. Also on record: species or system SCID mice. The settings on record: 100 mg/kg IV once a week for three weeks. On the procedure:
as §1
In vivo tumor growth delay and angiogenic assay: Five-week-old SCID mice were divided into 4 groups with 10 animals in each group. First two groups received 100 μl of Ice cold matrigel medium containing ASPC-1 (1×10^6 cells/100 μl) and other two groups received HPAC cell lines subcutaneously. Once the tumor reached 100-120 mm^3, the groups 2 and 4 received ganetespib (100 mg/kg body weight) IV once a week for three weeks. […] Every other day, tumor was measured using vernier caliper scale for a total of five weeks, when the animals were sacrificed. Skin around the implanted matrigel tumor was removed carefully and the tumor with its surrounding was photographed under visible light.

Setting [11] is: human pancreatic tumor xenografts.

For `CC(C)c1cc(-c2nnc(O)n2-c2ccc3c(ccn3C)c2)c(O)cc1O` [ganetespib], the 50% inhibitory concentration (IC50) in [1] is 9 nM; in data set [2], 11 nM; in data set [3] it was 12 nM; in [4], 31 nM; in [5], 24 nM. In data set [6], the “Effect on KRAS substrates” value is “induced the destabilization of several KRAS substrates, including BRAF and CRAF”. For the same molecule, the Febrile neutropenia in [7] (four patients, ganetespib in combination with docetaxel) stood at 22%. Besides, the “Neutropenia (most common adverse event)” value in data set [7] (ganetespib in combination with docetaxel) was determined as 67%. In addition, the “Recommended dose of ganetespib” value in data set [7] (in combination with docetaxel at 75 mg/m^2) stood at 150 mg/m^2. Further, in data set [7] (nine patients, ganetespib in combination with docetaxel), the Serious adverse events was determined as 50%. For the same molecule, in data set [7] (one patient with cancer of the parotid gland, ganetespib with docetaxel), the “Shrinkage of target tumor lesions” value was “over 50%”. Further, the “Effect of ganetespib on docetaxel pharmacokinetics” value in data set [7] (patients) is “no effect”. In [7] (patients), the “Pharmacokinetics of ganetespib alone versus prior to docetaxel” value was “pharmacokinetic similarity”. Further, the “HIF-1α and VEGF protein levels” value in [8] is “decreased HIF-1α a and VEGF expression; also recorded: decreased levels”. In data set [9], the “VEGF secretion in the culture medium” value is “reduced VEGF secretion; also recorded: decrease in VEGF secretion; also recorded: down-regulation of VEGF secretion”. Moreover, the Angiogenesis in vivo entry in data set [10] (setting [11]) is listed as “inhibition of angiogenesis in vivo; also recorded: decreases angiogenesis”. The Tumor growth result in [10] (setting [11]) was “significant tumor growth delay; also recorded: significantly inhibits tumor growth”. The “Deaths from the treatment” value in data set [10] (SCID mice) was “None of the animals died”.
